According to patent publication US20130338106A1, “COMPOUNDS INHIBITING LEUCINE-RICH REPEAT KINASE ENZYME ACTIVITY” (priority 2011, published 2013):
Like-named read-outs stand apart in the source and are kept apart here.

Experiments:
Type in all cases: biochemical
[1] = biological target: T1, LRRK2 G2019S mutant kinase (Homo sapiens, UniProt Q5S007, G2019S); test: LRRK2 G2019S LanthaScreen TR-FRET kinase assay; details: LRRK2 G2019S GST-tagged protein, 100 μM ATP, LRRKtide substrate; read-out: IC50 (potency)
T1 construct: GST; purchased Invitrogen PV4882
Procedure, shortened: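 GST-tagged enzyme with 75 nM fluorescein-ERM (LRRKtide) substrate, 100 μM ATP, 2 mM DTT, 1% DMSO final; 1 h at room temperature. Stopped with EDTA and Tb-anti-pERM antibody, 30 min, then TR-FRET read (ex 340, em 520/495 nm); IC50 and maximal inhibition derived.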

BLK = biological target: T2, BLK (Homo sapiens, UniProt P51451); test: ProfilerPro Kinase Selectivity, BLK; details: tested at 10 uM, read-out: percent inhibition of the kinase activity
T2 construct: purchased Caliper LifeSciences
T2 sequence (P51451 whole entry, species assumed): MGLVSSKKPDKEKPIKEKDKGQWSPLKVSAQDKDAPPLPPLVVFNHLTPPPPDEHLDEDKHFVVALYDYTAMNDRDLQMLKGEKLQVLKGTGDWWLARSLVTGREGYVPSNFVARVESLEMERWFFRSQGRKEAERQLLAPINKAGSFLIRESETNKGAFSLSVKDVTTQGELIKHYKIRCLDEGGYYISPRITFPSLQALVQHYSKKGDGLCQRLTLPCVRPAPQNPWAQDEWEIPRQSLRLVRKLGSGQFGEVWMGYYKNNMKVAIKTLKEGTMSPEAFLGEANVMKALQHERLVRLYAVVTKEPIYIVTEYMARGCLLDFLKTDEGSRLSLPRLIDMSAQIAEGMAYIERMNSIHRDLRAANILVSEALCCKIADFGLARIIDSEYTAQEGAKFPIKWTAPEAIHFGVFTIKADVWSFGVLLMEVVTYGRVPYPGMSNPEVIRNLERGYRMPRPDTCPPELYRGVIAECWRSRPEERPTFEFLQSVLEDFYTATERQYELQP
Method: (§1) Kinome selectivity profiling was performed using two example compounds according to the manufacturer's instructions using Caliper LifeSciences' ProfilerPro Kinase Selectivity Assay Kits. Compounds prepared in Examples 1 and 7 were tested at 10 uM and data were recorded using the Caliper LabChip® EZ Reader™. Each compounds' percent inhibition of the kinase activity measured in this manner is reported in the following lists.

BTK = biological target: T3, BTK (Homo sapiens, UniProt Q06187); test: ProfilerPro Kinase Selectivity, BTK; details: tested at 10 uM, read-out: percent inhibition of the kinase activity
T3 construct: purchased Caliper LifeSciences
Method: as §1

CAMK2A = biological target: T4, CAMK2A (Homo sapiens, UniProt Q9UQM7); test: ProfilerPro Kinase Selectivity, CAMK2A; details: tested at 10 uM, read-out: percent inhibition of the kinase activity
T4 construct: purchased Caliper LifeSciences
Method: as §1

CAMK2B = biological target: T5, CAMK2B (Homo sapiens, UniProt Q13554); test: ProfilerPro Kinase Selectivity, CAMK2B; details: tested at 10 uM, read-out: percent inhibition of the kinase activity
T5 construct: purchased Caliper LifeSciences
T5 sequence (Q13554 whole entry, species assumed): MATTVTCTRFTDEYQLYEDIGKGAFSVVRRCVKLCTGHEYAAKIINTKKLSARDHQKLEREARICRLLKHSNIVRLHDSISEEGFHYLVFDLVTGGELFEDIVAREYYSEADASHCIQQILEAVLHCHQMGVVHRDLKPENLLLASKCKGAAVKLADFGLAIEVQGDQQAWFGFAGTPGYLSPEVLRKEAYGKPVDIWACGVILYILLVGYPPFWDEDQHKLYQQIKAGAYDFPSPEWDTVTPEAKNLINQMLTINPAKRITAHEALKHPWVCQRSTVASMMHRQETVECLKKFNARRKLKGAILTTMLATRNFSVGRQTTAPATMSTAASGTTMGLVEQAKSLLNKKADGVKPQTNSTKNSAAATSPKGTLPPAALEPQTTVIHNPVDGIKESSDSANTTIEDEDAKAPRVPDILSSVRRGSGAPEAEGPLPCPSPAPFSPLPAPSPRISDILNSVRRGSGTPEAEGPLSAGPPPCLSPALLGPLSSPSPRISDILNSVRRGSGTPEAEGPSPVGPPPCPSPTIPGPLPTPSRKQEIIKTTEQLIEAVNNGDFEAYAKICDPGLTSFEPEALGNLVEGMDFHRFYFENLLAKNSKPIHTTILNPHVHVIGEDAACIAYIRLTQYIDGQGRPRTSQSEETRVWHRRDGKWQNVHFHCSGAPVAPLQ
Method: as §1

CAMK2G = biological target: T6, CAMK2G (Homo sapiens, UniProt Q13555); test: ProfilerPro Kinase Selectivity, CAMK2G; details: tested at 10 uM, read-out: percent inhibition of the kinase activity
T6 construct: purchased Caliper LifeSciences
Method: as §1

CK1E = biological target: T7, CK1E (Homo sapiens, UniProt P49674); test: ProfilerPro Kinase Selectivity, CK1E; details: tested at 10 uM, read-out: percent inhibition of the kinase activity
T7 construct: purchased Caliper LifeSciences
Method: as §1

CLK2 = biological target: T8, CLK2 (Homo sapiens, UniProt P49760); test: ProfilerPro Kinase Selectivity, CLK2; details: tested at 10 uM, read-out: percent inhibition of the kinase activity
T8 construct: purchased Caliper LifeSciences
Method: as §1

DCAMKL2 = biological target: T9, DCAMKL2 (Homo sapiens, UniProt Q8N568); test: ProfilerPro Kinase Selectivity, DCAMKL2; details: tested at 10 uM, read-out: percent inhibition of the kinase activity
T9 construct: purchased Caliper LifeSciences
Method: as §1

DYRK1B = biological target: T10, DYRK1B (Homo sapiens, UniProt Q9Y463); test: ProfilerPro Kinase Selectivity, DYRK1B; details: tested at 10 uM, read-out: percent inhibition of the kinase activity
T10 construct: purchased Caliper LifeSciences
T10 sequence (Q9Y463 whole entry, species assumed): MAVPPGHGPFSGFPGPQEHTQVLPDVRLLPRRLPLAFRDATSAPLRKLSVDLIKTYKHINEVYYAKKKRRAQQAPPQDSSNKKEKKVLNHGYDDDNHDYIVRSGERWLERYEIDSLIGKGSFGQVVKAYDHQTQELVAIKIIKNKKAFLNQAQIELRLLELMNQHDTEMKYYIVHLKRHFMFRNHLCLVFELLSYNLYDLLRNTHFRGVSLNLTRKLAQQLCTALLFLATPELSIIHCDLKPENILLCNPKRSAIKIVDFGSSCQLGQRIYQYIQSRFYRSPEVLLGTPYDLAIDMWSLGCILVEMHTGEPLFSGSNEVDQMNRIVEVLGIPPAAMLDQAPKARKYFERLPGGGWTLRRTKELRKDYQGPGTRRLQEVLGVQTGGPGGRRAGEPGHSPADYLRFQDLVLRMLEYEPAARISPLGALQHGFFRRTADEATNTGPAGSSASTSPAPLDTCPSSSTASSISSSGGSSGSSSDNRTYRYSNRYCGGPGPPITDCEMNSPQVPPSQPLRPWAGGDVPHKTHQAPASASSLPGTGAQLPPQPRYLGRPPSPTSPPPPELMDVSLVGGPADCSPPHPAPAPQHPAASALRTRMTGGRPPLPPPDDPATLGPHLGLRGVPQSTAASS
Method: as §1

FGFR2 = biological target: T11, FGFR2 (Homo sapiens, UniProt P21802); test: ProfilerPro Kinase Selectivity, FGFR2; details: tested at 10 uM, read-out: percent inhibition of the kinase activity
T11 construct: purchased Caliper LifeSciences
Method: as §1

FGFR3 = biological target: T12, FGFR3 (Homo sapiens, UniProt P22607); test: ProfilerPro Kinase Selectivity, FGFR3; details: tested at 10 uM, read-out: percent inhibition of the kinase activity
T12 construct: purchased Caliper LifeSciences
T12 sequence (P22607 23-806, species assumed): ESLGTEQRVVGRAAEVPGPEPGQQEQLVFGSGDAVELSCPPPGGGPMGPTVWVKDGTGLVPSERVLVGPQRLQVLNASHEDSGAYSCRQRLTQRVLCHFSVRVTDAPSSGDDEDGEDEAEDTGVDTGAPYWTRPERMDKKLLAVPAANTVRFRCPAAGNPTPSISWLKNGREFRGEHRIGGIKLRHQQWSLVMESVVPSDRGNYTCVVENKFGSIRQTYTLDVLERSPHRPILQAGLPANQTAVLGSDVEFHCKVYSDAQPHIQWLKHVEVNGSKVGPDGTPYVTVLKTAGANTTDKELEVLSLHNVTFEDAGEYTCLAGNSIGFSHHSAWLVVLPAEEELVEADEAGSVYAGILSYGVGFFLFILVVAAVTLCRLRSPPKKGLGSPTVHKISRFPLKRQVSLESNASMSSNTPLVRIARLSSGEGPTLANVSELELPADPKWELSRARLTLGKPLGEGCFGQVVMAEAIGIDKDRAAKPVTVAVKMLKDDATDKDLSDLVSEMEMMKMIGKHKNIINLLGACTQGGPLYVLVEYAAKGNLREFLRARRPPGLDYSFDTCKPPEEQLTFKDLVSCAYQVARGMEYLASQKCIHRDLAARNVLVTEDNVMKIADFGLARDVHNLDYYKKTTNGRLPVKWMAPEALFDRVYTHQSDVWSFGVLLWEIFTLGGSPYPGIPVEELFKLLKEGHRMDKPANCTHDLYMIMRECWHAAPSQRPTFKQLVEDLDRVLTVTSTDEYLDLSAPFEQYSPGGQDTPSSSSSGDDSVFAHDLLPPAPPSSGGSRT
Method: as §1

FYN = biological target: T13, FYN (Homo sapiens, UniProt P06241); test: ProfilerPro Kinase Selectivity, FYN; details: tested at 10 uM, read-out: percent inhibition of the kinase activity
T13 construct: purchased Caliper LifeSciences
T13 sequence (P06241 whole entry, species assumed): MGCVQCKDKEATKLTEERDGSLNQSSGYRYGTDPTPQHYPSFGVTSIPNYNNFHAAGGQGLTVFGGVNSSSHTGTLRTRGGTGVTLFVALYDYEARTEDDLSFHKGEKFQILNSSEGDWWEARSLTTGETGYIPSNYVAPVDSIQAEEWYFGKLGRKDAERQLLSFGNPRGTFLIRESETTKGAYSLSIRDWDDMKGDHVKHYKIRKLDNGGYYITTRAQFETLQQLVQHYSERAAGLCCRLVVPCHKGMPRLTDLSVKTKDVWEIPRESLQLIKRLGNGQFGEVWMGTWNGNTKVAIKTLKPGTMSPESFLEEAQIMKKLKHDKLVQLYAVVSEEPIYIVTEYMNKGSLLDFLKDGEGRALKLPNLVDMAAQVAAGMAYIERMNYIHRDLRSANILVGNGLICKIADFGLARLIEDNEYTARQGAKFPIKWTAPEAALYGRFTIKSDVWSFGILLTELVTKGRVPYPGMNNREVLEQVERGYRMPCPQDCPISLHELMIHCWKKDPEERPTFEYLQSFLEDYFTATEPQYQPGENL
Method: as §1

HCK = biological target: T14, HCK (Homo sapiens, UniProt P08631); test: ProfilerPro Kinase Selectivity, HCK; details: tested at 10 uM, read-out: percent inhibition of the kinase activity
T14 construct: purchased Caliper LifeSciences
Method: as §1

HGK = biological target: T15, HGK (Homo sapiens, UniProt O95819); test: ProfilerPro Kinase Selectivity, HGK; details: tested at 10 uM, read-out: percent inhibition of the kinase activity
T15 construct: purchased Caliper LifeSciences
Method: as §1

KIT = biological target: T16, KIT (Homo sapiens, UniProt P10721); test: ProfilerPro Kinase Selectivity, KIT; details: tested at 10 uM, read-out: percent inhibition of the kinase activity
T16 construct: purchased Caliper LifeSciences
Method: as §1

LRRK2 (G2019S) = biological target: T17, LRRK2 (G2019S) (Homo sapiens, UniProt Q5S007, G2019S); test: ProfilerPro Kinase Selectivity, LRRK2 (G2019S); details: read-out: percent inhibition of the kinase activity
T17 construct: purchased Caliper LifeSciences
Method: Kinome selectivity profiling was performed using two example compounds according to the manufacturer's instructions using Caliper LifeSciences' ProfilerPro Kinase Selectivity Assay Kits. Compounds prepared in Examples 1 and 7 were tested at 10 uM and data were recorded using the Caliper LabChip® EZ Reader™.

MSK1 = biological target: T18, MSK1 (Homo sapiens, UniProt O75582); test: ProfilerPro Kinase Selectivity, MSK1; details: tested at 10 uM, read-out: percent inhibition of the kinase activity
T18 construct: purchased Caliper LifeSciences
Method: as §1

MSK2 = biological target: T19, MSK2 (Homo sapiens, UniProt O75676); test: ProfilerPro Kinase Selectivity, MSK2; details: tested at 10 uM, read-out: percent inhibition of the kinase activity
T19 construct: purchased Caliper LifeSciences
Method: as §1

MST1 = biological target: T20, MST1 (Homo sapiens, UniProt Q13043); test: ProfilerPro Kinase Selectivity, MST1; details: tested at 10 uM, read-out: percent inhibition of the kinase activity
T20 construct: purchased Caliper LifeSciences
Method: as §1

NEK1 = biological target: T21, NEK1 (Homo sapiens, UniProt Q96PY6); test: ProfilerPro Kinase Selectivity, NEK1; details: tested at 10 uM, read-out: percent inhibition of the kinase activity
T21 construct: purchased Caliper LifeSciences
Method: as §1

PAK2 = biological target: T22, PAK2 (Homo sapiens, UniProt Q13177); test: ProfilerPro Kinase Selectivity, PAK2; details: tested at 10 uM, read-out: percent inhibition of the kinase activity
T22 construct: purchased Caliper LifeSciences
Method: as §1

PDGFRA = biological target: T23, PDGFRA (Homo sapiens, UniProt P16234); test: ProfilerPro Kinase Selectivity, PDGFRA; details: tested at 10 uM, read-out: percent inhibition of the kinase activity
T23 construct: purchased Caliper LifeSciences
T23 sequence (P16234 24-1089, species assumed): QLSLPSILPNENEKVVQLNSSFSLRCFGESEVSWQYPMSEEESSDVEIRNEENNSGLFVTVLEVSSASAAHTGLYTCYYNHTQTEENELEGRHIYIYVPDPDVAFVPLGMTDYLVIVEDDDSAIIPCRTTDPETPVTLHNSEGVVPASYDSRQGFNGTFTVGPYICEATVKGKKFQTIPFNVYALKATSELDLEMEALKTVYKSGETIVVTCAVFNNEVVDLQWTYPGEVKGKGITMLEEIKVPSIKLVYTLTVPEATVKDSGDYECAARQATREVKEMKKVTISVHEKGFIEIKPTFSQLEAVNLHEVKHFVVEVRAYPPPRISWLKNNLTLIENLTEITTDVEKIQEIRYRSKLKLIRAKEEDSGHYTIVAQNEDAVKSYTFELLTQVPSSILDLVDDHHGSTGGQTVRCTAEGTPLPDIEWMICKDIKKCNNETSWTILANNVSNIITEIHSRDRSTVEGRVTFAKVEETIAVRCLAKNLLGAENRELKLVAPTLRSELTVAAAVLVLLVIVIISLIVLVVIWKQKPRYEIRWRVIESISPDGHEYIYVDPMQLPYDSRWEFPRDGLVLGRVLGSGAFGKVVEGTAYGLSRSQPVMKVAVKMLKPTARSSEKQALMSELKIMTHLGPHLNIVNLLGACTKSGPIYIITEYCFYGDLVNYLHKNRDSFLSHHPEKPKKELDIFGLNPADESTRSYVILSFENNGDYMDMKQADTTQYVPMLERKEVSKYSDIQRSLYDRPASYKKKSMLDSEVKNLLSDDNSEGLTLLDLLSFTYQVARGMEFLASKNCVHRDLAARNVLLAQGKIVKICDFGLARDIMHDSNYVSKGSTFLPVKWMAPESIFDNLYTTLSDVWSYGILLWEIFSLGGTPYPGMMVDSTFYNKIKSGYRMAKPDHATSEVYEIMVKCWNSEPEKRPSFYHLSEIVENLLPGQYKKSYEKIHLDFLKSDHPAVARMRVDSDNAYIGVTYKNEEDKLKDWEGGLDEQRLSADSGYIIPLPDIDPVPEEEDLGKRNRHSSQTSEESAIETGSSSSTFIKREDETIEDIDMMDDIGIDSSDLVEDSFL
Method: as §1

PKCI = biological target: T24, PKCI (Homo sapiens, UniProt P41743); test: ProfilerPro Kinase Selectivity, PKCI; details: tested at 10 uM, read-out: percent inhibition of the kinase activity
T24 construct: purchased Caliper LifeSciences
Method: as §1

PKG1A = biological target: T25, PKG1A (Homo sapiens, UniProt Q13976); test: ProfilerPro Kinase Selectivity, PKG1A; details: tested at 10 uM, read-out: percent inhibition of the kinase activity
T25 construct: purchased Caliper LifeSciences
Method: as §1

RET V804L = biological target: T26, RET V804L (Homo sapiens, UniProt P07949, V804L); test: ProfilerPro Kinase Selectivity, RET V804L; details: tested at 10 uM, read-out: percent inhibition of the kinase activity
T26 construct: purchased Caliper LifeSciences
Method: as §1

ROCK1 = biological target: T27, ROCK1 (Homo sapiens, UniProt Q13464); test: ProfilerPro Kinase Selectivity, ROCK1; details: tested at 10 uM, read-out: percent inhibition of the kinase activity
T27 construct: purchased Caliper LifeSciences
Method: as §1

SRC = biological target: T28, SRC (Homo sapiens, UniProt P12931); test: ProfilerPro Kinase Selectivity, SRC; details: tested at 10 uM, read-out: percent inhibition of the kinase activity
T28 construct: purchased Caliper LifeSciences
T28 sequence (P12931 whole entry, species assumed): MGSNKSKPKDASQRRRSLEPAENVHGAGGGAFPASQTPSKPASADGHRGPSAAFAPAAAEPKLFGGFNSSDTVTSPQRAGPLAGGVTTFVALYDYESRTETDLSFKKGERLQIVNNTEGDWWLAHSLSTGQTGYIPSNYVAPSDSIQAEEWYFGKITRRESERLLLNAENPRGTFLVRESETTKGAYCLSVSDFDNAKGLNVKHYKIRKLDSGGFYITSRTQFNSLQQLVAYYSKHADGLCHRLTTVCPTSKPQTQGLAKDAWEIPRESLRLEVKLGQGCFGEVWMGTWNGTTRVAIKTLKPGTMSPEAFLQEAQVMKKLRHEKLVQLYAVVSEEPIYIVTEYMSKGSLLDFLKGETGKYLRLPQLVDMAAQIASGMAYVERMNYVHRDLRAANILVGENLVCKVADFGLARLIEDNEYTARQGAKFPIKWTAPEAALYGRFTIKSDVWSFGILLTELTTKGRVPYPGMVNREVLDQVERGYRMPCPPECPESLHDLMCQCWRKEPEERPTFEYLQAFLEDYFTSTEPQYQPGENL
Method: as §1

| SMILES | IC50 [1] | inhibition at 10 µM (BLK) | inhibition at 10 µM (BTK) | inhibition at 10 µM (CAMK2A) | inhibition at 10 µM (CAMK2B) | inhibition at 10 µM (CAMK2G) | inhibition at 10 µM (CK1E) | inhibition at 10 µM (CLK2) | inhibition at 10 µM (DCAMKL2) | inhibition at 10 µM (DYRK1B) | inhibition at 10 µM (FGFR2) | inhibition at 10 µM (FGFR3) | inhibition at 10 µM (FYN) | inhibition at 10 µM (HCK) | inhibition at 10 µM (HGK) | inhibition at 10 µM (KIT) | inhibition at 10 µM (MSK1) | inhibition at 10 µM (MSK2) | inhibition at 10 µM (MST1) | inhibition at 10 µM (NEK1) | other results |
| --- | --- | --- | --- | --- | --- | --- | --- | --- | --- | --- | --- | --- | --- | --- | --- | --- | --- | --- | --- | --- | --- |
| CC1(C)CC(=O)c2c(SC3CCCC3)sc(-c3cc[nH]n3)c2C1 [Example 7, 3-(Cyclopentylsulfanyl)-6,6-dimethyl-1-(1H-pyrazol-3-yl)-6,7-dihydro-2-benzothiophen-4(5H)-one] | 93 nM | 3.2% | 4.8% | 1.7% | 6% | 4.4% | 5.1% | 1.3% | -4.2% | 4.7% | 2.6% | -2.6% | 2.5% | -1.1% | 3.9% | -7.3% | -2.8% | 10.4% | -3% | 1.4% | inhibition at 10 µM (LRRK2 (G2019S); LRRK2 (G2019S), tested at 10 uM): 78.3%; inhibition at 10 µM (PAK2): 2.4%; inhibition at 10 µM (PDGFRA): -0.7%; inhibition at 10 µM (PKCI): -8.9%; inhibition at 10 µM (PKG1A): 1.9%; inhibition at 10 µM (RET V804L): 15.7%; inhibition at 10 µM (ROCK1): 5.1%; inhibition at 10 µM (SRC): 1.5% |
| CSc1sc(-c2cc[nH]n2)c2c1C(=O)CCC2 [Example 1, 3-(Methylsulfanyl)-1-(1H-pyrazol-3-yl)-6,7-dihydro-2-benzothiophen-4(5H)-one] | 190 nM | 6.6% | 3.1% | -4.8% | 6.3% | 3.1% | 10.9% | 31.3% | -0.8% | 40.2% | 4.9% | 9% | 1.2% | 12.5% | 13.8% | 19.2% | 5.1% | 4.2% | 7.2% | 9.1% | inhibition at 10 µM (LRRK2 (G2019S)): 88.3%; inhibition at 10 µM (PAK2): 4.6%; inhibition at 10 µM (PDGFRA): 15.7%; inhibition at 10 µM (PKCI): -14%; inhibition at 10 µM (PKG1A): -5.9%; inhibition at 10 µM (RET V804L): 41.5%; inhibition at 10 µM (ROCK1): -3.1%; inhibition at 10 µM (SRC): 7.3% |
